The record followed here is ChEMBL document CHEMBL1201862, “PubChem BioAssay data set” (2004).

In experiment [1] the test system is HEK293. Nature of the experiment: inhibitors of LMP1-driven NF-kB reporter, dose response, cell-based, HEK293, luciferase, cherry-pick (AID 588343). Format: functional. The following applies: Homo sapiens.
Experiment [2] can be described thus: Counterscreen for AddAB inhibitors: absorbance-based bacterial cell-based high throughput dose response assay for inhibitors of bacterial viability. [Related pubchem assays (depositor defined):AID435030, AID449728, AID449731, AID488942, AID488955, AID488956]. Format: functional. On the technique in general: The purpose of a counterscreen is to sort out artefacts and off-target activity.

Experiment [3] is described as follows: cells. Format: functional, cell-based.
A short description of experiment [4]: cells. Format: functional, cell-based. This is another data set of the same source.
Experiment [5] is described as follows: HepG2 cell cytotoxicity, dose response, cytotoxicity control for Shn3 inhibitor project, CellTiter-Glo, cherry-picked (AID 624134). It is filed as functional, cell-based. A general note: ATP-based viability assays read luminescence as a measure of living cells.
Experiment [6] can be described thus: Shn3 3'UTR reporter inhibitors, dose response, cell-based, Clone20 osteoblasts, firefly luciferase, cherry-picked (AID 624132).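 Further: firefly luciferase luminescence from reporter carrying the Shn3 3'UTR in osteoblasts.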 Format: functional.
The target of experiment [7] is Heat shock protein HSP 90-alpha (Homo sapiens, UniProt P07900). It is filed as functional, organism-based.
The nature of experiment [8]: control 3'UTR Renilla luciferase suppression, dose response, counter-screen for Shn3 inhibitor project, cell-based, Clone20-Shn3RL, cherry-picked (AID 624133). Format: functional.
Experiment [9] concerns the target Exodeoxyribonuclease V (Escherichia coli (strain K12), UniProt P04993+P07648+P08394). Nature of the experiment: E. coli RecBCD inhibitors, dose response, counter-screen for AddAB inhibitor project, absorbance, V66 E. coli, mutant T4 phage (AID 492957). Format: functional, cell-based, Escherichia coli str. K-12 substr. MG1655.
Experiment [10] concerns the target T1, Ubiquitin-conjugating enzyme E2 N (Homo sapiens, UniProt P61088).
T1 sequence (P61088 whole entry): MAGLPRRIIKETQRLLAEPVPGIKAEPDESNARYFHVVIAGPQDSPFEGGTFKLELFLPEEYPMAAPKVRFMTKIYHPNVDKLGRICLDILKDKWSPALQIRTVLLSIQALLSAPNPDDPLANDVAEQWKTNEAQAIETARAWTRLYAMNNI
It is filed as functional.

Experiment [11] has as its target T2, Bcl-2-related protein A1 (Mus musculus, UniProt Q07440).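 Further: confirmatory dose–response counterscreen on Bfl-1, used to check hits from a UBC13 polyubiquitin inhibitor campaign.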
T2 sequence (Q07440 whole entry): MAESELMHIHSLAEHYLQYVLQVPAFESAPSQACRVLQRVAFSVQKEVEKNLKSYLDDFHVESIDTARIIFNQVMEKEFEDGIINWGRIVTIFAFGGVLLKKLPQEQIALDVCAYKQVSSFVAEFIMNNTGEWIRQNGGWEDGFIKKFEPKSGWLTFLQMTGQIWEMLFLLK
Format: functional.

The target of experiment [12] is T1, Ubiquitin-conjugating enzyme E2 N. It is filed as functional. This is another data set of the same source.
In experiment [13] the target is Nucleotide-binding oligomerization domain-containing protein 2 (Homo sapiens, UniProt Q9HC29). Nature of the experiment: NOD2 signaling inhibitors, cell-based, luminescence, uHTS, HEK293 (AID 1566). Format: functional.
Sequence of Nucleotide-binding oligomerization domain-containing protein 2 (Q9HC29 whole entry, the tested form may be a part): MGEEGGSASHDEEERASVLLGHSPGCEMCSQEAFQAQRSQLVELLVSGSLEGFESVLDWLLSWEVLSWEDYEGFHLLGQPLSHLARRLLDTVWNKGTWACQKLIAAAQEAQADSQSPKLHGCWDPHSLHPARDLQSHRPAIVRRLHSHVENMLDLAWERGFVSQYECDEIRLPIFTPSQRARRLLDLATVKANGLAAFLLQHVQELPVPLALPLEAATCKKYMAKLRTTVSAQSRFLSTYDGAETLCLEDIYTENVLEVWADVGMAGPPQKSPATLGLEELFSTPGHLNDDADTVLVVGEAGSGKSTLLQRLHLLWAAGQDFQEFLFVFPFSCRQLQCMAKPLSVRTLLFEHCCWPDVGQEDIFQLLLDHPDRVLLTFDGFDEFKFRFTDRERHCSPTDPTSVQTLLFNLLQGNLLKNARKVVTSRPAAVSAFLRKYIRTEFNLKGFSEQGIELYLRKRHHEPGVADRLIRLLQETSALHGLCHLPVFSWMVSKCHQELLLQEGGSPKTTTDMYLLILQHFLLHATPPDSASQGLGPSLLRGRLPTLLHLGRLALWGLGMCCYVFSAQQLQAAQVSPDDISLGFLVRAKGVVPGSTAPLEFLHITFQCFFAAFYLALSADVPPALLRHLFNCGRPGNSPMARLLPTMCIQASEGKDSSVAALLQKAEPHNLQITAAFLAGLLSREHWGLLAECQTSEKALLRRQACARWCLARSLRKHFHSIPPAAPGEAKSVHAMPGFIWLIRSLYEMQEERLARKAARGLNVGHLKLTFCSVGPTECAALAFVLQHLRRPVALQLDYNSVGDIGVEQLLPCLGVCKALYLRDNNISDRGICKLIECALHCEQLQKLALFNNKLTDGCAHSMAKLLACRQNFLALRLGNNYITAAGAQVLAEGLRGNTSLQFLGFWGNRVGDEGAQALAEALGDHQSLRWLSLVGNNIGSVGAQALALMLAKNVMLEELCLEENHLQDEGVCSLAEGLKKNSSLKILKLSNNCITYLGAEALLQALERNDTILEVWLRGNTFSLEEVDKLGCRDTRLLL
Experiment [14] has as its system HEK293. In words: NOD1 signaling inhibitors, primary screen, cell-based, luminescence, uHTS (AID 1578). Format: functional. The following applies: Homo sapiens.
Experiment [15] relates to HEK293. In words: cells. It is filed as functional, cell-based. The following applies: Homo sapiens.
Experiment [16] deals with HEK293. In words: cells. It is filed as functional, cell-based. The following applies: Homo sapiens. This is another data set of the same source.
Experiment [17] has as its system HEK293. Nature of the experiment: NOD2 signaling inhibitors in MDP-stimulated cells, cell-based, uHTS, luminescence (AID 2001). Format: functional. The following applies: Homo sapiens.
Experiment [18] concerns HEK293. Nature of the experiment: cells. It is filed as functional, cell-based. To be noted: Homo sapiens. This is another data set of the same source.
Experiment [19] is described as follows: ARNT/TACC3 interaction disruptors, potency, confirmation, biochemical, AlphaScreen, cherry-picked samples (AID 651703).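 Further: His-tagged ARNT PAS-B domain paired with GST-TACC3 E629A dimer coactivator fragment; potency of inhibitors that break up the complex and lower AlphaScreen signal.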 Format: functional, Homo sapiens.
The target in experiment [20] is T3, Carboxy-terminal domain RNA polymerase II polypeptide A small phosphatase 1 (Homo sapiens, UniProt Q9GZU7).
T3 sequence (Q9GZU7 whole entry): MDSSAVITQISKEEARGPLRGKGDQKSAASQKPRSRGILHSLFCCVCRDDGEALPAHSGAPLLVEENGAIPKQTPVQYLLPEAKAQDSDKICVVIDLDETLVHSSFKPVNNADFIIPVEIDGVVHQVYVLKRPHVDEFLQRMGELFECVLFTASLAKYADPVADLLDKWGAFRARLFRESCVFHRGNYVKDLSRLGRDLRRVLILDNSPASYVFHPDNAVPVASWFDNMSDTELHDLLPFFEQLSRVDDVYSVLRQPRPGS
Nature of the experiment: inhibitors of CTDSP1, concentration-response testing, biochemical assay, absorbance-based, actives from ultra-high-throughput screening (AID 540297). Format: functional.

In experiment [21] the target is T4, Dual specificity protein phosphatase 6 (Rattus norvegicus, UniProt Q64346).
T4 sequence (Q64346 whole entry): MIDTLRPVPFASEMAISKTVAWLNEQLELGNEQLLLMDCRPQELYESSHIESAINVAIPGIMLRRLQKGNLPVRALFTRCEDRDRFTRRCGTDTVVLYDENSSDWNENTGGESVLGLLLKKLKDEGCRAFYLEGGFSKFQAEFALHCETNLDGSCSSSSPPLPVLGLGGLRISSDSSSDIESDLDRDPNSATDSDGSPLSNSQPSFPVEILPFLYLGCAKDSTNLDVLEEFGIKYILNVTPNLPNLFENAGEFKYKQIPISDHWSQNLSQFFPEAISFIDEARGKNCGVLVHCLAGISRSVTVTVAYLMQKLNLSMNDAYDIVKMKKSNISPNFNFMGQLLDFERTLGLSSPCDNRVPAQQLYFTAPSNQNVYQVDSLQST
Nature of the experiment: MKP-3 phosphatase inhibitors, primary screen, biochemical, rat enzyme, in vitro (AID 425).

Experiment [22] addresses T5, Dual specificity protein phosphatase 3 (Homo sapiens, UniProt P51452). Nature of the experiment: VHR1 phosphatase inhibitors, biochemical (AID 1878).
Experiment [23] deals with T6, Small ubiquitin-related modifier 1 (Homo sapiens, UniProt P63165). Nature of the experiment: inhibitors of SUMO1 peptide binding, dose response, biochemical, fluorescence polarization, uHTS hits (AID 624382). It is filed as functional. To be noted: read-out: IC50_Mean. A general note: In fluorescence polarisation assays a small probe gives low polarisation when free and higher when bound to something large.
T6 sequence (P63165 whole entry): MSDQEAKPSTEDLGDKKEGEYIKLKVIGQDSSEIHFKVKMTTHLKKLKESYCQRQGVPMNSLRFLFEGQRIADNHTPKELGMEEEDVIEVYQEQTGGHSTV

Experiment [24] concerns the target Genome polyprotein (dengue virus type 2, UniProt P29990). Nature of the experiment: Dengue-2 NS5 methyltransferase inhibitors, primary screen, biochemical, confirmation dose response (AID 588689). It is filed as functional.
For experiment [25], the target named is T6, Small ubiquitin-related modifier 1. Nature of the experiment: inhibitors of SUMO1 partner interactions, dose response, biochemical, FRET (AID 624383). It is filed as functional. The following applies: read-out: IC50_Mean.
Experiment [26] deals with Vero. In words: Vero cell cytotoxicity, cytotoxicity control for flavivirus capping enzyme inhibitors (AID 588742). To be noted: Chlorocebus sabaeus. Format: functional.
Experiment [27] has as its target T5, Dual specificity protein phosphatase 3. Nature of the experiment: VHR1 phosphatase inhibitors, primary screen, biochemical, absorbance, uHTS (AID 1654).
Experiment [28] has as its target T7, Cannabinoid receptor 2 (Homo sapiens, UniProt P34972). Nature of the experiment: SAR analysis of antagonists of the Cannabinoid Receptor 2 using an Image-Based Assay - Set 2. [Related pubchem assays (depositor defined):AID1961, AID1965]. Format: functional.
Experiment [29] addresses T7, Cannabinoid receptor 2. Nature of the experiment: SAR analysis of agonists of the Cannabinoid Receptor 2 using an Image-Based Assay - Set 2. [Related pubchem assays (depositor defined):AID1961, AID1965]. Format: functional.
In experiment [30] the target is T8, G-protein coupled receptor 55 (Homo sapiens, UniProt Q9Y2T6). Nature of the experiment: SAR analysis of selective Agonists of GPR55 using an Image-Based Assay. [Related pubchem assays (depositor defined):AID1961, AID1965]. Format: functional.
T8 sequence (Q9Y2T6 whole entry): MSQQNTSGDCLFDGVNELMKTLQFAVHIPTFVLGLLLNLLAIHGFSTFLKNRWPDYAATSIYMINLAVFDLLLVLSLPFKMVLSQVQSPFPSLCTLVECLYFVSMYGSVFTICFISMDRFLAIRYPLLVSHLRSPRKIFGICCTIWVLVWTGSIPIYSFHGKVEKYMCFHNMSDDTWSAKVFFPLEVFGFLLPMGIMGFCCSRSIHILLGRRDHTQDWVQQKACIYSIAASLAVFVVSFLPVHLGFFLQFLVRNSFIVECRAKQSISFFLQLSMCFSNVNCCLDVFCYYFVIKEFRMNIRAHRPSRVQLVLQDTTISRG
In experiment [31] the target is T8, G-protein coupled receptor 55. In words: GPR55 agonists via beta-arrestin recruitment, primary screen, imaging, U2OS cells, beta-arrestin-GFP redistribution (AID 1961). It is filed as functional.
Experiment [32] addresses Cannabinoid receptor 1 (Homo sapiens, UniProt P21554). Nature of the experiment: SAR analysis of antagonists of the Cannabinoid Receptor 1 using an Image-Based Assay. [Related pubchem assays (depositor defined):AID1961, AID1965]. It is filed as functional.
Experiment [33] deals with Luciferin 4-monooxygenase (Photinus pyralis, UniProt P08659). In words: firefly luciferase enzyme inhibitors, dose response, biochemical, luminescence (AID 1891).
Sequence of Luciferin 4-monooxygenase (P08659 whole entry): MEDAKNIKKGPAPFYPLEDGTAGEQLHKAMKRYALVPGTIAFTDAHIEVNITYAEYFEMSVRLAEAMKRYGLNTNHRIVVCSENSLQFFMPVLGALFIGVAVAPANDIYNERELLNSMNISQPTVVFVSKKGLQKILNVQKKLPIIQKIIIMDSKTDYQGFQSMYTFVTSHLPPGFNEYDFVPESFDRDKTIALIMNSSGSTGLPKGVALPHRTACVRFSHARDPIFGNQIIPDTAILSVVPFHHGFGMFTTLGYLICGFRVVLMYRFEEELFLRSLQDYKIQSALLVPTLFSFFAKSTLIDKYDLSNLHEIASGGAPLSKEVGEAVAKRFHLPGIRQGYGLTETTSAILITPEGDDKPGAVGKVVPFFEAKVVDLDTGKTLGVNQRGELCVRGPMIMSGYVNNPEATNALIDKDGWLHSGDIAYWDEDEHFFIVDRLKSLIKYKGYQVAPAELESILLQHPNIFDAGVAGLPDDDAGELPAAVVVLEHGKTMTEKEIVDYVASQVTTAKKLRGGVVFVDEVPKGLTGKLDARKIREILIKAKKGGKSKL
A short description of experiment [34]: Luminescence Cell-Based Dose Confirmation HTS to Identify Inhibitors of Platelet Dense Granule Release. [Related pubchem assays: 1663 (Primary HTS), 1678 (Summary of Project)]. It is filed as functional.
Experiment [35] has as its target T9, DNA repair protein RAD52 homolog (Homo sapiens, UniProt P43351).
T9 sequence (P43351 whole entry): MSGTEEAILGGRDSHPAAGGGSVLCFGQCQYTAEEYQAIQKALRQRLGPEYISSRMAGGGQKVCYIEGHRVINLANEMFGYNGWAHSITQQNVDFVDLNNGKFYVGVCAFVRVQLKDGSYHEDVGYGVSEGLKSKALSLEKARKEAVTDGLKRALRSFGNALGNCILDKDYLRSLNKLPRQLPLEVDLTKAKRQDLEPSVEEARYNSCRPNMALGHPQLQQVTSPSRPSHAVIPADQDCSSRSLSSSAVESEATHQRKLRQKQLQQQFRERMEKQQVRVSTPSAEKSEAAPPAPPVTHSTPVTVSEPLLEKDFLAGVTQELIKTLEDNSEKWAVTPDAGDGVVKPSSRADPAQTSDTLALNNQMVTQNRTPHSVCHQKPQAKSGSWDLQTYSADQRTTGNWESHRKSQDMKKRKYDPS
It is filed as functional, biochemical.

Calls of active or inactive are those of the source.

Broadly, the AC50 is the concentration at which the activity in the assay is half-maximal. The term EC50 denotes the midpoint of the concentration-response curve. By CC50 is commonly meant the concentration giving 50% cytotoxicity.

T7 sequence (P34972 whole entry): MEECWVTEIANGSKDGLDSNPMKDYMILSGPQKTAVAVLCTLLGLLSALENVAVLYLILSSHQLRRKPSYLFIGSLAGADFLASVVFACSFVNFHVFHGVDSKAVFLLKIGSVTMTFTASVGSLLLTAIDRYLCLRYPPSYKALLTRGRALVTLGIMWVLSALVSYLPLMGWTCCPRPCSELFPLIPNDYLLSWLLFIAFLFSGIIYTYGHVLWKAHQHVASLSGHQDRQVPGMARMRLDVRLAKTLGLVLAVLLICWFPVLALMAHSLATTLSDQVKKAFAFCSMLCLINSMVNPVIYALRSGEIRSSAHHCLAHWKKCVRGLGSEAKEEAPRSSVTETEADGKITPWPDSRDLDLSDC
Sequence of Cannabinoid receptor 1 (P21554 whole entry): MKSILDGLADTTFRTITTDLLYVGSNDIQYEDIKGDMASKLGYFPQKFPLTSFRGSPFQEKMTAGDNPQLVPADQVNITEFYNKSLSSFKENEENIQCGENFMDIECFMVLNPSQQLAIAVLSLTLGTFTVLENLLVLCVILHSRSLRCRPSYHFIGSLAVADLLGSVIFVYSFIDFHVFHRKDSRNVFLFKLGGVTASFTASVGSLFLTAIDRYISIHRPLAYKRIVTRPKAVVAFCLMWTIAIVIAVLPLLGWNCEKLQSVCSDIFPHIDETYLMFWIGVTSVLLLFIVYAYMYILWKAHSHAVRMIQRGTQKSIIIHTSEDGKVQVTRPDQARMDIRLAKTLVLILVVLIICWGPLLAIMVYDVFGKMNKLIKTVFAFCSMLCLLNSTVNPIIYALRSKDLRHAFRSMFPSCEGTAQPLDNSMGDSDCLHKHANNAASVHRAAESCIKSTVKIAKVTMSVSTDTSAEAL
T5 sequence (P51452 whole entry): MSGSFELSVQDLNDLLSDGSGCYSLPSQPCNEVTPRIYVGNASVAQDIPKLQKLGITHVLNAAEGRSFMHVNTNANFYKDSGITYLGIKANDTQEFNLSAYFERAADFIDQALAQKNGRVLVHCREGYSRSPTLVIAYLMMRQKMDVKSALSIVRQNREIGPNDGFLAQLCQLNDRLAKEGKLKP
Sequence of Genome polyprotein (P29990 2492-3391 limits assumed): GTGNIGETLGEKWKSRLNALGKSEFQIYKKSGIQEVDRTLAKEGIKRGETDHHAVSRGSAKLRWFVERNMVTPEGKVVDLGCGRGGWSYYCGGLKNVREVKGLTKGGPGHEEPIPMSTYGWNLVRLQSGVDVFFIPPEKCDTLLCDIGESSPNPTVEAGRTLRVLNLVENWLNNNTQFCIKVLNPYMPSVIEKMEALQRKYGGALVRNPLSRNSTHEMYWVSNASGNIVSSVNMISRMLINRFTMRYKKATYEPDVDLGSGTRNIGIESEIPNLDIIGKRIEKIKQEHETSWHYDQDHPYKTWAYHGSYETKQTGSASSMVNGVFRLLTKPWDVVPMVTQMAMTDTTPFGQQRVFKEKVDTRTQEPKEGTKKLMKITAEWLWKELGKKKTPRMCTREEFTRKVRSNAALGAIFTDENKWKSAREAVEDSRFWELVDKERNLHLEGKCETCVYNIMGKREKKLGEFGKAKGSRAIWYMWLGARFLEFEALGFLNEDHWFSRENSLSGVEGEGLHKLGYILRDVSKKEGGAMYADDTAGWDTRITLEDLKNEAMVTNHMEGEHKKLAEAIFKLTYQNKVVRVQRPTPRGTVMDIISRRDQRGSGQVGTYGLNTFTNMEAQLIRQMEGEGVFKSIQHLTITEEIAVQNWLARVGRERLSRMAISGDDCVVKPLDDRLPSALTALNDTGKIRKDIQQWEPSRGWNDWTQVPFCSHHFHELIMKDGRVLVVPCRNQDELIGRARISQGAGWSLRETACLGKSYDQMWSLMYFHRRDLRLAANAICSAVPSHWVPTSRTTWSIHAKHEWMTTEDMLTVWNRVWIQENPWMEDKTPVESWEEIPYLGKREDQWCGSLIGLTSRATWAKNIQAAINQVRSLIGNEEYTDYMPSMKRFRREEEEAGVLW

Consider `CC(C)C(=O)NC(c1ccc(Cl)cc1Cl)c1ccc2cccnc2c1O` (stereo not drawn), for which the AC50 in experiment [1] was 4.52 µM (active); in [5], 1.11 µM (active); in [6] it was 0.691 µM (active); in experiment [7], 25.5 µM (active); in [8], 1.6 µM (active). The IC50 in experiment [2] and in experiment [9] was > 119 µM (inactive) in each case. For the same compound, the EC50 in [3] was 7.49 µM (active); in experiment [4] it was > 350 µM (not active).
As for `NC(=S)N=Nc1c(O)n(C2OC(=O)c3ccccc32)c2ccccc12` (stereo not drawn), the IC50 in experiment [10] was 2.38 µM (active); in experiment [11] it was > 20 µM (inactive); in [12], 3.62 µM (active).
On to `COc1ccc(CCNc2oc(COc3ccccc3Cl)nc2C#N)cc1OC`, for which the EC50 in experiment [13] is 16 µM (active); in experiment [14], 14 µM (active). Besides, the IC50 is 8.53 µM (active) in [15], 11.1 µM (active) in [16], 8.33 µM (active) in experiment [17] and > 20 µM (inactive) in [18].
As to `Cc1c(CCC(=O)O)c(=O)oc2c(C)c3occ(-c4ccc(Br)cc4)c3cc12`, the AC50 in experiment [19] was 99.5 µM (active). Further, the IC50 is 3.57 µM (active) in experiment [20]; 69.2 µM (active) in [21]; 11.3 µM (active) in experiment [22]; > 66.6 µM (inactive) in [23]; 33.2 µM (active) in experiment [24]; 12.6 µM (active) in experiment [25]. For the same compound, the IC50 in experiment [27] is 11.1 µM (active). Moreover, in [26], the CC50 is > 40 µM (active).
`COc1ccc(OCC(O)CNc2ccc(Br)cc2)cc1` (stereo not drawn): the IC50 in experiment [2] and in experiment [9] was > 119 µM (inactive) each time.
`O=C(CSc1nc2ccccc2s1)N1c2ccccc2Sc2ccc(C(F)(F)F)cc21`: the IC50 in experiment [28] and in experiment [32] was > 32 µM (inactive) throughout. Further, the EC50 in experiment [29] was < 0.062 µM (active); in experiment [30], 1.17 µM (active); in experiment [31] it was 1 µM (active).
Regarding `C/C(C=NNC(=O)c1nnn(-c2nonc2N)c1CN1CCC(C)CC1)=C/c1ccccc1`, the IC50 in experiment [28] and in experiment [32] was > 32 µM (inactive) throughout. For the same compound, the EC50 is > 32 µM (inactive) in experiment [29] and 0.681 µM (active) in experiment [30].
Consider `CCC1CCCCN1S(=O)(=O)c1ccc(NC(=O)c2ccncc2)cc1` (stereo not drawn), for which the EC50 in experiment [13] was > 20 µM (inactive); in experiment [33], > 112 µM (not active); in [14] it was 5.51 µM (active); in experiment [34], > 112 µM (not active). For the same compound, the IC50 is 8.23 µM (active) in experiment [15], 19.3 µM (active) in [16], 11.7 µM (inactive) in [17] and > 20 µM (inactive) in [18]. For the same compound, the AC50 was 4.88 µM (active) in [5], 3.43 µM (active) in experiment [6] and 16.5 µM (active) in experiment [8].
For the compound `N[C@@H](CO)c1cn([C@@H](Cc2cc3ccccc3[nH]2)C(=O)N2CCNCC2)nn1`, in experiment [35], the AC50 is 3.52 µM (active). For the same compound, the IC50 is 10.9 µM (active) in experiment [10], > 20 µM (inactive) in [11] and 12.3 µM (active) in [12].
